US6908591B2, “Methods for sterilizing biological materials by irradiation over a temperature gradient” (Clearant, Inc., priority 2002, dated 2005)

Key:
type I collagen [1] = test: SDS-PAGE of type I collagen irradiated to 45 kGy with stabilizers (Example 17); details: gamma irradiation at -20° C.
Protocol: In this experiment, type I collagen at −20° C., −80° C. or freeze-dried at 4° C. were irradiated with gamma radiation to a total dose of 45 kGy in the presence of various stabilizers.
• 1M thiourea (Sigma T8656) in water; • 0.5M coumarin (Sigma CC4261) in ethanol; • 0.5M 0-coumaric acid (Sigma C4400) in ethanol; • 0.5M curcumin (Sigma C1386) in ethanol; • 1M L-cysteine (Sigma C6852) in water; • 1M 1,3-dimethyl-2-thiourea (Aldrich 534-13-4) in water; • 1M 2-mercaptoethylamine (Sigma M6500) in water; and • 1M 1,3-dimethylurea (Sigma D6254) in water. Phosphate buffer solution of 40 mM sodium phosphate and 100 mM NaCl; pH=7.66. Methods: The following samples were prepared to a final volume of 0.5 ml: • 1 mg/ml collagen in 5 mM acetic acid (control); • 1 mg/ml collagen+0.1 M coumaric acid; • 1 mg/ml collagen+5 mM curcumin; • 1 mg/ml collagen+0.1M L-cysteine; • 1 mg/ml collagen+0.1M 1,3-dimethyl-2-thiourea; • 1 mg/ml collagen+0.1M thiourea; • 1 mg/ml collagen+0.1M 2-mercaptoethylamine; and • 1 mg/ml collagen+0.1M 1,3-dimethylurea. The samples were irradiated as follows: • freeze-dried; temperature:4.7° C.; dose rate: 1.656 kGy/hr; total dose:45 kGy; • temperature:−20.5° C.; dose rate:1.537 kGy/hr; total does:45 kGy; and • […]; dose rate:1.530-1.528 kGy/hr;45 kGy. Following irradiation, the samples were analyzed by SDS-PAGE. Additionally, the samples were diluted 1:2 with water to give collagen concentrations of 0.5 mg/ml and a turbidity assay was performed to detect collagen fibril formation. Collagen fibril formation was initiated by adding 100 μl of phosphate buffer solution. The assay was done in triplicate using a microtiter plate reader at 340 nm wavelength.

ACL collagen [2] = test: SDS-PAGE densitometry of purified pepsin-digested collagen, ACL in alcohols irradiated at -80° C. to 50 kGy (Example 11); details: 1.53 kGy/hr
Protocol: This experiment was to determine whether alcohols can protect ACL tissue samples from γ-irradiation at −80° C. with 50 kGy. 1. […] 2. These samples were then incubated with different alcohols for 2 hr in a shaking incubator at 37° C. 3. After 2 hr incubation, these ACL tubes were decanted and fresh solutions were added to each ACL containing tubes and incubated overnight at −80° C. 4. These samples were irradiated with 0 and 50 kGy at 1.53 kGy/hr at NIST. 6. ACL were digested with pepsin and collagen purified by precipitating with salt. 8. Ran 10 μg of each purified pepsin-digested collages on 4-12% gel and quantified both alpha 1 and alpha 2 chains.

porcine AV heart valves = test: HPLC analysis of frozen AV heart valve cusps irradiated to 30 kGy at -20° C. (Example 3); details: 1.584 kGy/hr
Protocol: In this experiment, frozen porcine AV heart valves soaked in various solvents were gamma irradiated to a total dose of 30 kGy at 1.584 kGy/hr at −20° C. 5. […] 6. Incubated tubes at 4° C. with nutating for ˜46 hours. 9. Frozen samples were then irradiated at −20° C. at a rate of 1.584 kGy/hr to a total dose of 30 kGy.

type I collagen [3] = test: Turbidity assay of collagen fibril formation after irradiation (Example 17); format: biochemical; details: 45 kGy
Protocol: Phosphate buffer solution of 40 mM sodium phosphate and 100 mM NaCl; pH=7.66. Methods: […] Following irradiation, the samples were analyzed by SDS-PAGE. Additionally, the samples were diluted 1:2 with water to give collagen concentrations of 0.5 mg/ml and a turbidity assay was performed to detect collagen fibril formation. Collagen fibril formation was initiated by adding 100 μl of phosphate buffer solution. The assay was done in triplicate using a microtiter plate reader at 340 nm wavelength.

[4] = tested on: porcine ACL extractable proteins; test: Guanidine HCl extracts of freeze dried ACL irradiated to 45 kGy: SDS-PAGE, BCA assay, densitometry (Example 6); details: 45 kGy versus 0 kGy control
Protocol: Guanidine HCL extraction was done with 4 M GuHCl in 0.5 NaOAC pH 5.8 and 5 mM EDTA, 10 mM NEM, 5 mM Benzamidine and 1 mM PMSF to a final concentration of […] of extraction buffer. The samples were incubated at 4° C. on a nutator for 2 days.
A BCA assay was performed on the dialysates of the PPG+cocktail guanidine extracted samples to determine the total protein concentration in the samples.
Using BCA and SDS-PAGE on the PPG+Cocktail sample, guanidine extracts were evaluated based on SDS-PAGE of equal protein load. The protein concentrations were as follows:
Densitometry was performed on two different protein bands, as follows: […]

[5] = tested on: Porcine Pulmonary Valve (PV) Heart valves; test: HPLC and gel analysis of heart valve cusps gamma irradiated to 30 kGy at -20° C. (Example 1); details: 1.584 kGy/hr
Protocol: In this experiment, porcine heart valves were gamma irradiated in the presence of polypropylene glycol 400 (PPG400) and, optionally, a scavenger, to a total dose of 30 kGy (1.584 kGy/hr at −20° C.).
5. 1.2 ml of PPG were added to two tubes (one of these tubes was designated 0 kGy and the other tube was designated 30 kGy): • 1.2 ml of 125 mM Trolox C in PPG were added to another two tubes • 1.2 ml of SCb stabilizer mixture—comprising of 1.5 ml 125 mM Trolox C, 300 μl 1 M Lipoic Acid, 600 μl 0.5 M Coumaric Acid and 600 μl 0.5 M n-Propyl Gallate (Final concentrations: 62.5 mM, 100 mM, 100 mM and 100 mM respectively) were added to the final two tubes.
6. Tubes were incubated at 4° C., with rocking for about 60 hours.
Samples were irradiated at a rate of 1.584 kGy/hr at −20° C. to a total dose of 30 kGy.
3. Samples were weighed, transferred to hydrolysis vials and 6 N HCl added at a volume of 20 mg tissue/ml HCl:
4. Samples were hydrolyzed at 110° C. for approximately 23 hours.

ACL collagen [6] = test: Turbidity assay of collagen isolated from ACL irradiated in alcohols (Example 11); format: biochemical; details: even at 0.5 mg/ml
Protocol: 7. Turbidity assay was performed for these collagens using at [1 mg/ml].
A turbidity assay was performed for the collagen isolated from these ACL samples. Correlation was found between the ACL collagen before and after irradiation.

[7] = Protocol: • Tissue—Porcine Pulmonary Valve (PV) Heart valves were harvested prior to use and stored. • Tissue Preparation Reagents— • Polypropylene Glycol 400.
An additional 1 ml PPG was added and further water bath sonicated.
The 0.5M solution was soluble after a 20-30 minute water bath sonication.

ACL collagen [8] = test: SDS-PAGE of purified pepsin-digested collagen, ACL in high salt, low salt, neutral or low pH irradiated at -80° C. to 50 kGy (Example 10)
Protocol: This experiment was to determine whether high salt, low salt, neutral pH and low pH treated ACL will help to deliver stabilizers into ACL tissue to protect it from γ-irradiation at -80° C. with 50 kGy. 1. Prepared stock solution 2M sodium ascorbate (Spectrum […], Lot#QP0839) in water. Samples were prepared with the following: • a) DPBS • b) DPBS/200 mM sodium ascorbate • c) 0.5N HOAc • d) 0.5N HOAc/200 mM sodium ascorbate • e) 20 mM sodium phosphate pH 7.6 • f) 20 mM sodium phosphate pH 7.6/200 mM sodium ascorbate • g) 20 mM sodium phosphate pH 7.6/1M NaCl • h) 20 mM sodium phosphate pH 7.6/1M NaCl/200 mM sodium ascorbate. 2. These samples were irradiated with 0 and 50 kGy at 1.53 kGy/hr at NIST. 4. ACL were digested with pepsin and collagen purified by precipitating with salt.

collagen = test: Turbidity assay of liquid and gel collagen irradiated on dry ice (Example 18); format: biochemical; details: frozen on dry ice, 48.73 to 53.38 kGy
Protocol: The samples were gamma irradiated at […] (frozen on dry ice) at dose rates of […] to a total dose of 48.73 to 53.38 kGy. The irradiated samples were analyzed by SDS-PAGE. Additionally, the samples were diluted 1:2 with water to give collagen concentrations of 0.5 mg/ml and a turbidity assay was performed to detect collagen fibril formation. Collagen fibril formation was initiated by adding 100 μl of phosphate buffer solution. The assay was done in triplicate using a microtiter plate reader at 340 nm wavelength.

Question: With `COc1cc(/C=C/C(=O)CC(=O)/C=C/c2ccc(O)c(OC)c2)ccc1O` [curcumin] as the molecule, how does the “protective effect on collagen” value (type I collagen [1]) read?
Answer: The value was “less than that observed with thiourea and 1,3-dimethyl-2-thiourea”.

Question: With `CC(O)C(C)O` (stereo not shown) [butanediol, 2,3-butanediol] as the molecule, how does the “yield for 50 kGy ACL collagen based on the densitometry of alpha 1 and 2 chains” value (ACL collagen [2]) read?
Answer: The value was 88%.

Question: Which “HPLC analysis, preservation of peaks after irradiation” value (porcine AV heart valves; listed as 20% DMSO) does the source give for `C[S+](C)[O-]` [DMSO, dimethyl sulfoxide] here?
Answer: The value was “reproduced these peaks more faithfully”.

Question: And the “HPLC analysis, preservation of peaks after irradiation” value (porcine AV heart valves; listed as 50% DMSO)?
Answer: Its value is “slightly more effective”.

Question: Which “protective effect on collagen” value (type I collagen [1]) does the source give for `N[C@@H](CS)C(=O)O` [cysteine, L-cysteine] here?
Answer: The value was “less than that observed with thiourea and 1,3-dimethyl-2-thiourea”.

Question: What about the “fibril formation after irradiation (turbidity assay)” value (“fibril formation after irradiation” for short) (type I collagen [3]; irradiated at -80° C.) of the same molecule?
Answer: Its value is “could form fibrils after irradiation”.

Question: Which “protection of guanidine extractable proteins by SDS-PAGE” value (“protection … by SDS-PAGE” below) [4] does the source give for `OC[C@H]1O[C@H](O[C@H]2O[C@H](CO)[C@@H](O)[C@H](O)[C@H]2O)[C@H](O)[C@@H](O)[C@@H]1O` [Trehalose, D(+)-trehalose] here?
Answer: Its value is “least protection”.

Question: Which “protective effect on collagen” value (type I collagen [1]) does the source give for `NCCS` [2-mercaptoethylamine] here?
Answer: The value was “less than that observed with thiourea and 1,3-dimethyl-2-thiourea”.

Question: What about the “fibril formation after irradiation” value (type I collagen [3]; irradiated at -80° C.) of the same molecule?
Answer: The value was “could form fibrils after irradiation”.

Question: With `C[N+](C)(C)[C@@H](Cc1c[nH]c(=S)[nH]1)C(=O)[O-]` [ergothionine] as the molecule, how does the “protection … by SDS-PAGE” value [4] read?
Answer: Its value is “good protection of proteins in the lower ⅔ of the gel”.

Question: Which “HPLC analysis, irradiated versus not irradiated heart valve” value [5] does the source give for polypropylene glycol 400 [PPG 400] here?
Answer: The value was “nearly identical”.

Question: With `N[C@@H](Cc1c[nH]cn1)C(=O)O` [histidine, L-histidine] as the molecule, how does the “protection … by SDS-PAGE” value [4] read?
Answer: Its value is “most promising results”.

Question: Which “fibril formation in turbidity assay” value (ACL collagen [6]) does the source give for `CC(O)CO` (stereo not shown) [propanediol, 1,2-propanediol] here?
Answer: The value was “could not form fibrils”.

Question: With `O=C(O)/C=C/c1ccc(O)cc1` [Coumaric Acid] as the molecule, how does the “solubility of the stock solution in PPG” value [7] read?
Answer: Its value is “not 100% soluble”.

Question: With `CNC(=S)NC` [1,3-dimethyl-2-thiourea] as the molecule, how does the “fibril formation after irradiation” value (type I collagen [3]) read?
Answer: The value was “could form fibrils after irradiation”.

Question: And the “fibril formation after irradiation” value (type I collagen [3]; irradiated at -80° C.)?
Answer: Its value is “could form fibrils after irradiation”.

Question: Which “yield of purified pepsin-digested collagen at 50 kGy” value (ACL collagen [8]; without ascorbate, -80° C.) does the source give for `CC(=O)O` [0.5N HOAc, acetic acid] here?
Answer: Its value is 73%.

Question: Which “solubility of the stock solution in PPG” value [7] does the source give for `Cc1c(C)c2c(c(C)c1O)CCC(C)(C(=O)O)O2` (stereo not shown) [Trolox C, 6-hydroxy-2,5,7,8-tetramethylchroma-2 carboxylic acid] here?
Answer: Its value is “not soluble”.

Question: And the “soluble at (in PPG)” value [7]?
Answer: The value was 125 mM.

Question: Which results are given for `CCO` [ethanol]?
Answer: yield for 50 kGy ACL collagen based on the densitometry of alpha 1 and 2 chains (ACL collagen [2]): 77%; fibril formation in turbidity assay (ACL collagen [6]): could not form fibrils

Question: Which “solubility of the stock solution in PPG” value [7] does the source give for `CCCOC(=O)c1cc(O)c(O)c(O)c1` [n-Propyl Gallate] here?
Answer: Its value is “soluble”.

Question: For `CNC(=O)NC` [1,2-dimethylurea, 1,3-dimethylurea], which “protective effect on collagen” value (type I collagen [1]) is on record?
Answer: Its value is “less than that observed with thiourea and 1,3-dimethyl-2-thiourea”.

Question: What does the source list for `O=C1O[C@H]([C@@H](O)CO)C([O-])=C1O.[Na+]` [ascorbate, sodium ascorbate]?
Answer: protection of guanidine extractable proteins by SDS-PAGE [4]: most promising results; yield of purified pepsin-digested collagen at 50 kGy (ACL collagen [8]; with ascorbate (200 mM) in 20 mM sodium phosphate pH 7.6 without salt, -80° C.): 75%; yield of purified pepsin-digested collagen at 50 kGy (ACL collagen [8]; with ascorbate (200 mM) in 0.5N HOAc pH 3.4, -80° C.): 83%; yield of purified pepsin-digested collagen at 50 kGy (ACL collagen [8]; with ascorbate (200 mM) in high salt (20 mM sodium phosphate pH 7.6/1M NaCl), -80° C.): 40%; protection of gel or liquid collagen (turbidity assay) (collagen): most effective
